pIC50: −log10 of the molar value.
Key:
Vero = assay: Cytotoxicity against african green monkey Vero C1008 cells at 6.25 to 50 ug/ml by neutral red uptake assay; assay type: cell-based; conditions: chlorocebus sabaeus
[1] = target: Cyclin-dependent kinase 5/CDK5 activator 1 (Homo sapiens, UniProt Q00535); assay type: protein-complex assay
Cyclin-dependent kinase 5/CDK5 activator 1, sequence (Q00535 whole entry): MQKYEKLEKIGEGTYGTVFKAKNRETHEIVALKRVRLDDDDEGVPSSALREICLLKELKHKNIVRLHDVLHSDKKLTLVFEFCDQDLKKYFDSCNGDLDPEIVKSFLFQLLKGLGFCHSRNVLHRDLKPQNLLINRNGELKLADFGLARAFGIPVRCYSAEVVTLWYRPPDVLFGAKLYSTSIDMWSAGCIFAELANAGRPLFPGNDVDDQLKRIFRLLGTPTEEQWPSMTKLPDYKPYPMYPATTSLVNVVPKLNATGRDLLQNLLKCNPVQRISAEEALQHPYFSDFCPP
Cyclin-dependent kinase 5/CDK5 activator 1, sequence (Q15078 whole entry, further chain): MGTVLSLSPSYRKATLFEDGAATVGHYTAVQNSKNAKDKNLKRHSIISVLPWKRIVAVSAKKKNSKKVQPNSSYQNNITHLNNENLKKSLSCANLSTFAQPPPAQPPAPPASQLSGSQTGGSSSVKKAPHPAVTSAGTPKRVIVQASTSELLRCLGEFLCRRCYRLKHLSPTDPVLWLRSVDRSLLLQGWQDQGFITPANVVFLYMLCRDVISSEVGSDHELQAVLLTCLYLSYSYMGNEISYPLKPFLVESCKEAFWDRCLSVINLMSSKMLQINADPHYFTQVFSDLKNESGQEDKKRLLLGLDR

Row | Structure (SMILES) | Activity (Vero) | pIC50 [1]
1 | CC(=O)Nc1sc2c(c1Cc1nnc(S)n1N)CCCC2 | Non-toxic | 6.41
2 | Nn1c(S)nnc1Cc1c(NC(=O)c2ccccc2)sc2c1CCCC2 | Non-toxic | 6.21
3 | N#CCSc1nnc(Cc2c(NC(=O)CCl)sc3c2CCCC3)n1NC(=O)c1ccccc1 | Non-toxic | 6.18
4 | CC(=O)Nn1c(Cc2c(NC(=O)CCl)sc3c2CCCC3)nnc1SCC(=O)NNC(=O)CCl | Non-toxic | 6.34
5 | CC(=O)NNC(=O)CSc1nnc(Cc2c(NC(=O)CCl)sc3c2CCCC3)n1NC(C)=O | Non-toxic | 6.34
6 | O=C(Cc1c(NC(=O)CCl)sc2c1CCCC2)NNC(=S)[S-].[K+] | Non-toxic | 6.61
7 | Nn1c(S)nnc1CSc1nnc(Cc2c(NC(=O)CCl)sc3c2CCCC3)n1NC(=O)c1ccccc1 | Non-toxic | 5.21
8 | CC(=O)Nn1c(Cc2c(NC(=O)CCl)sc3c2CCCC3)nnc1SCSc1nnc(Cc2c(NC(=O)CCl)sc3c2CCCC3)n1NC(C)=O | Non-toxic | 6.07
9 | O=C(CCl)Nc1sc2c(c1Cc1nnc(SCSc3nnc(Cc4c(NC(=O)CCl)sc5c4CCCC5)n3NC(=O)c3ccccc3)n1NC(=O)c1ccccc1)CCCC2 | Non-toxic | 6.17
10 | CC(=O)NNC(=O)CSc1nnc(Cc2c(NC(=O)CCl)sc3c2CCCC3)n1NC(=O)c1ccccc1 | Non-toxic | 6.46
11 | N#CCSc1nnc(Cc2c(NCCC(=O)O)sc3c2CCCC3)n1NC(=O)c1ccccc1 |  | 5.31
12 | O=C(CCl)NNC(=O)CSc1nnc(Cc2c(NC(=O)CCl)sc3c2CCCC3)n1NC(=O)c1ccc(Cl)cc1 | Non-toxic | 6.64
13 | CC(=O)Nn1c(Cc2c(NCCC(=O)O)sc3c2CCCC3)nnc1SCC(=O)N/N=C/c1ccccc1 |  | 6.27
14 | Nn1c(S)nnc1CSc1nnc(Cc2c(NC(=O)CCl)sc3c2CCCC3)n1NC(=O)c1ccc(Cl)cc1 | Non-toxic | 5.54
15 | COC(=O)CSc1nnc(Cc2c(NC(C)=O)sc3c2CCCC3)n1NC(=O)c1ccccc1 |  | 6.24
16 | CC(=O)Nc1sc2c(c1Cc1nnc(SCC#N)n1NC(C)=O)CCCC2 |  | 6.34
17 | CC(=O)Nc1sc2c(c1Cc1nnc(SCC#N)n1NC(=O)c1ccc(Cl)cc1)CCCC2 |  | 6.38
18 | O=C(O)CCNc1sc2c(c1CC(=O)NNC(=S)[S-])CCCC2.[K+] | Non-toxic | 6.40
19 | CC(=O)NNC(=O)CSc1nnc(Cc2c(NC(=O)c3ccccc3)sc3c2CCCC3)n1NC(=O)c1ccccc1 |  | 6.25
20 | CC(=O)NNC(=O)CSc1nnc(Cc2c(NCCC(=O)O)sc3c2CCCC3)n1NC(C)=O |  | 6.44
21 | CC(=O)Nc1sc2c(c1Cc1nnc(SCC(=O)NNC(=O)c3ccccc3)n1NC(=O)c1ccccc1)CCCC2 |  | 6.38
22 | O=C(CCl)Nc1sc2c(c1Cc1n[nH]c(=S)n1NC(=O)c1ccc(Cl)cc1)CCCC2 | Non-toxic | 6.46
23 | CC(=O)Nc1sc2c(c1Cc1n[nH]c(=S)n1NC(=O)c1ccc(Cl)cc1)CCCC2 |  | 6.34
24 | O=C(CCl)Nc1sc2c(c1Cc1nnc(SCSc3nnc(Cc4c(NC(=O)CCl)sc5c4CCCC5)n3NC(=O)c3ccc(Cl)cc3)n1NC(=O)c1ccc(Cl)cc1)CCCC2 | Non-toxic | 6.47
25 | O=C(O)CCNc1sc2c(c1Cc1nnc(S)n1NC(=O)c1ccc(Cl)cc1)CCCC2 |  | 6.34
26 | Nn1c(S)nnc1CSc1nnc(Cc2c(NC(=O)c3ccccc3)sc3c2CCCC3)n1NC(=O)c1ccc(Cl)cc1 |  | 5.48
27 | CC(=O)Nc1sc2c(c1Cc1nnc(SCC#N)n1NC(=O)c1ccccc1)CCCC2 |  | 6.41

Row | Structure (SMILES) | Activity (Vero) | pIC50 [1]
28 | Nn1c(S)nnc1Cc1c(NCCC(=O)O)sc2c1CCCC2 | Non-toxic | 6.57
29 | CC(=O)Nc1sc2c(c1Cc1nnc(SCc3n[nH]c(=S)n3N)n1NC(=O)c1ccccc1)CCCC2 |  | 5.19
30 | O=C(CCl)NNC(=O)CSc1nnc(Cc2c(NC(=O)CCl)sc3c2CCCC3)n1NC(=O)c1ccccc1 | Non-toxic | 6.27
31 | O=C(O)CCNc1sc2c(c1Cc1n[nH]c(=S)n1NC(=O)c1ccccc1)CCCC2 |  | 6.17
32 | O=C(O)CCNc1sc2c(c1Cc1nnc(SCSc3nnc(Cc4c(NCCC(=O)O)sc5c4CCCC5)n3NC(=O)c3ccc(Cl)cc3)n1NC(=O)c1ccc(Cl)cc1)CCCC2 |  | 6.79
33 | CC(=O)Nn1c(Cc2c(NC(=O)c3ccccc3)sc3c2CCCC3)nnc1SCC(=O)NN |  | 6.74
34 | CC(=O)NNC(=O)CSc1nnc(Cc2c(NC(C)=O)sc3c2CCCC3)n1NC(C)=O |  | 6.49
35 | CC(=O)Nc1sc2c(c1CC(=O)NNC(=S)[S-])CCCC2.[K+] | Non-toxic | 6.46
36 | COC(=O)CSc1nnc(Cc2c(NC(=O)CCl)sc3c2CCCC3)n1NC(C)=O | Non-toxic | 6.16
37 | CC(=O)Nn1c(Cc2c(NC(=O)c3ccccc3)sc3c2CCCC3)nnc1SCc1nnc(S)n1N |  | 5.21
38 | CC(=O)Nn1c(Cc2c(NC(=O)c3ccccc3)sc3c2CCCC3)nnc1SCSc1nnc(Cc2c(NC(=O)c3ccccc3)sc3c2CCCC3)n1NC(C)=O |  | 6.12
39 | CC(=O)Nc1sc2c(c1Cc1nnc(SCC(=O)N/N=C/c3ccccc3)n1NC(=O)c1ccc(Cl)cc1)CCCC2 |  | 6.67
40 | CC(=O)Nc1sc2c(c1Cc1nnc(SCC(=O)NNC(=O)c3ccccc3)n1NC(=O)c1ccc(Cl)cc1)CCCC2 |  | 6.28
41 | O=C(CSc1nnc(Cc2c(NC(=O)CCl)sc3c2CCCC3)n1NC(=O)c1ccc(Cl)cc1)NNC(=O)c1ccccc1 | Non-toxic | 6.21
42 | COC(=O)CSc1nnc(Cc2c(NCCC(=O)O)sc3c2CCCC3)n1NC(=O)c1ccccc1 |  | 6.19
43 | COC(=O)CSc1nnc(Cc2c(NC(=O)CCl)sc3c2CCCC3)n1NC(=O)c1ccccc1 | Non-toxic | 6.17
44 | CC(=O)Nn1c(Cc2c(NC(=O)c3ccccc3)sc3c2CCCC3)nnc1SCC(=O)N/N=C/c1ccccc1 |  | 6.33
45 | CC(=O)Nn1c(Cc2c(NC(=O)c3ccccc3)sc3c2CCCC3)nnc1SCC(=O)NNC(=O)CCl |  | 6.45
46 | CC(=O)NNC(=O)CSc1nnc(Cc2c(NC(C)=O)sc3c2CCCC3)n1NC(=O)c1ccccc1 |  | 6.26
47 | CC(=O)Nn1c(Cc2c(NCCC(=O)O)sc3c2CCCC3)nnc1SCC(=O)NNC(=O)c1ccccc1 |  | 6.32
48 | O=C(Nc1sc2c(c1Cc1nnc(S)n1NC(=O)c1ccccc1)CCCC2)c1ccccc1 |  | 6.05
49 | CC(=O)NNC(=O)CSc1nnc(Cc2c(NCCC(=O)O)sc3c2CCCC3)n1NC(=O)c1ccc(Cl)cc1 |  | 6.45
50 | COC(=O)CSc1nnc(Cc2c(NC(=O)c3ccccc3)sc3c2CCCC3)n1NC(C)=O |  | 6.25
51 | CC(=O)Nn1c(Cc2c(NC(=O)CCl)sc3c2CCCC3)nnc1SCC(=O)NNC(=O)c1ccccc1 | Non-toxic | 6.44
52 | CC(=O)Nn1c(S)nnc1Cc1c(NC(=O)c2ccccc2)sc2c1CCCC2 |  | 6.21
53 | COC(=O)CSc1nnc(Cc2c(NCCC(=O)O)sc3c2CCCC3)n1NC(C)=O |  | 6.13
54 | CC(=O)NNC(=O)CSc1nnc(Cc2c(NC(=O)c3ccccc3)sc3c2CCCC3)n1NC(=O)c1ccc(Cl)cc1 |  | 6.50

Row | Structure (SMILES) | Activity (Vero) | pIC50 [1]
55 | CC(=O)Nc1sc2c(c1Cc1nnc(SCC(=O)N/N=C/c3ccccc3)n1NC(C)=O)CCCC2 |  | 6.34
56 | NNC(=O)CSc1nnc(Cc2c(NC(=O)c3ccccc3)sc3c2CCCC3)n1NC(=O)c1ccccc1 |  | 6.58
57 | COC(=O)CSc1nnc(Cc2c(NC(=O)c3ccccc3)sc3c2CCCC3)n1NC(=O)c1ccc(Cl)cc1 |  | 6.53
58 | N#CCSc1nnc(Cc2c(NCCC(=O)O)sc3c2CCCC3)n1NC(=O)c1ccc(Cl)cc1 |  | 6.37
59 | CC(=O)Nn1c(Cc2c(NCCC(=O)O)sc3c2CCCC3)nnc1SCc1nnc(S)n1N |  | 5.21
60 | O=C(O)CCNc1sc2c(c1Cc1nnc(SCC(=O)NNC(=O)CCl)n1NC(=O)c1ccc(Cl)cc1)CCCC2 |  | 6.73
61 | CC(=O)Nc1sc2c(c1Cc1nnc(SCSc3nnc(Cc4c(NC(C)=O)sc5c4CCCC5)n3NC(=O)c3ccccc3)n1NC(=O)c1ccccc1)CCCC2 |  | 6.19
62 | O=C(CCl)NNC(=O)CSc1nnc(Cc2c(NC(=O)c3ccccc3)sc3c2CCCC3)n1NC(=O)c1ccccc1 |  | 6.26
63 | NNC(=O)CSc1nnc(Cc2c(NCCC(=O)O)sc3c2CCCC3)n1NC(=O)c1ccccc1 |  | 6.34
64 | NNC(=O)CSc1nnc(Cc2c(NCCC(=O)O)sc3c2CCCC3)n1NC(=O)c1ccc(Cl)cc1 |  | 6.70
65 | O=C(CSc1nnc(Cc2c(NC(=O)c3ccccc3)sc3c2CCCC3)n1NC(=O)c1ccc(Cl)cc1)NNC(=O)c1ccccc1 |  | 6.32
66 | CC(=O)Nc1sc2c(c1Cc1nnc(SCc3nnc(S)n3N)n1NC(=O)c1ccc(Cl)cc1)CCCC2 |  | 5.20
67 | CC(=O)Nc1sc2c(c1Cc1nnc(SCC(=O)NNC(=O)CCl)n1NC(=O)c1ccccc1)CCCC2 |  | 6.19
68 | NNC(=O)CSc1nnc(Cc2c(NC(=O)c3ccccc3)sc3c2CCCC3)n1NC(=O)c1ccc(Cl)cc1 |  | 6.63
69 | CC(=O)Nc1sc2c(c1Cc1nnc(SCC(=O)NNC(=O)CCl)n1NC(C)=O)CCCC2 |  | 6.32
70 | N#CCSc1nnc(Cc2c(NC(=O)c3ccccc3)sc3c2CCCC3)n1NC(=O)c1ccccc1 |  | 6.31
71 | CC(=O)NNC(=O)CSc1nnc(Cc2c(NCCC(=O)O)sc3c2CCCC3)n1NC(=O)c1ccccc1 |  | 6.33
72 | CC(=O)Nn1c(Cc2c(NC(=O)c3ccccc3)sc3c2CCCC3)nnc1SCC#N |  | 6.25
73 | O=C(O)CCNc1sc2c(c1Cc1nnc(SCSc3nnc(Cc4c(NCCC(=O)O)sc5c4CCCC5)n3NC(=O)c3ccccc3)n1NC(=O)c1ccccc1)CCCC2 |  | 6.24
74 | CC(=O)Nc1sc2c(c1Cc1nnc(SCC(=O)N/N=C/c3ccccc3)n1NC(=O)c1ccccc1)CCCC2 |  | 6.41
75 | Nn1c(CSc2nnc(Cc3c(NCCC(=O)O)sc4c3CCCC4)n2NC(=O)c2ccccc2)n[nH]c1=S |  | 5.30
76 | O=C(O)CCNc1sc2c(c1Cc1nnc(SCC(=O)N/N=C/c3ccccc3)n1NC(=O)c1ccccc1)CCCC2 |  | 6.57
77 | COC(=O)CSc1nnc(Cc2c(NC(=O)c3ccccc3)sc3c2CCCC3)n1NC(=O)c1ccccc1 |  | 6.45
78 | COC(=O)CSc1nnc(Cc2c(NC(C)=O)sc3c2CCCC3)n1NC(=O)c1ccc(Cl)cc1 |  | 6.41
79 | CC(=O)Nc1sc2c(c1Cc1nnc(SCC(=O)NN)n1NC(C)=O)CCCC2 |  | 6.60

From ChEMBL document CHEMBL1795325, “Studying synergism of methyl linked cyclohexyl thiophenes with triazole: synthesis and their cdk5/p25 inhibition activity” (Eur J Med Chem, 2011)
